US12655120B2, “GPR52 modulator compounds” (NXERA PHARMA UK LIMITED, priority 2020, dated 2026)

Molecular target: T1, human GPR52 (Homo sapiens, UniProt Q9Y2T5)
T1 construct: expressed in transfected cells; host or cells: HEKf suspension cells infected with BacMam virus
Assay: GPR52 Agonist Functional cAMP Assay
Type: cell-based
Details: for EC50: HEKf cells infected with human GPR52 BacMam, HTRF cAMP, 30 min at 37° C., read-out: pEC50 average (converted); for Emax: normalised to DMSO (0%) and maximal compound 7m (J. Med. Chem., 2014, 57, 5226) response (100%)
Method: HEKf suspension cells were infected for 24 h with 0.1% v/v human GPR52 expressing BacMam virus, a modified baculovirus designed for mammalian gene expression. Following BacMam infection, cells were pelleted by centrifugation (335 g, 5 min), resuspended in cell freezing medium (Sigma) and frozen at −150° C. until required. On experiment day, 25 nL GPR52 compound dilutions, prepared in DMSO, were stamped onto proxiplates (PerkinElmer) by a LabCyte ECHO acoustic dispenser. Frozen cells were thawed and resuspended in assay stimulation buffer (Cisbio) containing 0.5 mM 3-iso-butyl-1-methylxanthine (IBMX, Sigma) to achieve a density of 2000 cells per well. 10 μl cells were added to assay plates using a Multidrop Combi Reagent Dispenser (ThermoFisher) before centrifugation (335 g, 1 min). Cells were incubated with compounds at 37° C. for 30 min prior to addition of cAMP detection reagents (HiRange cAMP kit, Cisbio) which were prepared according to the manufacturer's instructions. Plates were shaken for 1 h at room temperature before reading on a PHERAstar FS plate reader (BMG Labtech) using standard HTRF settings. HTRF ratios were obtained by dividing the acceptor emissions (665 nm) by the donor emissions (620 nm) and multiplying by 10,000.

T1 sequence (Q9Y2T5 whole entry): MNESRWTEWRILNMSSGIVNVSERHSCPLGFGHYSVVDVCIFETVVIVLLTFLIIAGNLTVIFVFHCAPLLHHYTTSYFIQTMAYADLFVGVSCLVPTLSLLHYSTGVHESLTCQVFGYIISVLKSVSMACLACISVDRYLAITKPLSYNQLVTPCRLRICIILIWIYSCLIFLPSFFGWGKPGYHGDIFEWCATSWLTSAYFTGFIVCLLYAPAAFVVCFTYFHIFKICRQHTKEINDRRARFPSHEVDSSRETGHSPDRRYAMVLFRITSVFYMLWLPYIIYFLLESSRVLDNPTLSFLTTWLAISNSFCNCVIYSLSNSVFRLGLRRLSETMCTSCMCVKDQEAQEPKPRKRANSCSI

SMILES | EC50 [nM] | Emax [%]
O=C(c1ccn(-c2cc(Cc3cc(F)cc(C(F)(F)F)c3)ccn2)n1)N1CCCC1 [Example 33, (1-(4-(3-fluoro-5-(trifluoromethyl)benzyl)pyridin-2-yl)-1H-pyrazol-3-yl)(pyrrolidin-1-yl)methanone] | 126 | 87
O=C(NC1COC1)c1ccn(-c2cc(Cc3cc(F)cc(C(F)(F)F)c3)ccn2)n1 [Example 34, 1-(4-(3-fluoro-5-(trifluoromethyl)benzyl)pyridin-2-yl)-N-(oxetan-3-yl)-1H-pyrazole-3-carboxamide] | 631 | 77
O=C(NCCO)c1ccn(-c2cc(Cc3cc(F)cc(C(F)(F)F)c3)ccn2)n1 [Example 35, 1-(4-(3-fluoro-5-(trifluoromethyl)benzyl)pyridin-2-yl)-N-(2-hydroxyethyl)-1H-pyrazole-3-carboxamide] | 398 | 83
COCCNC(=O)c1ccn(-c2cc(Cc3cc(F)cc(C(F)(F)F)c3)ccn2)n1 [Example 36, 1-(4-(3-fluoro-5-(trifluoromethyl)benzyl)pyridin-2-yl)-N-(2-methoxyethyl)-1H-pyrazole-3-carboxamide] | 126 | 87
Cc1nn(-c2cc(Cc3cc(F)cc(C(F)F)c3)ccn2)cc1C(N)=O [Example 37, 1-(4-(3-(difluoromethyl)-5-fluorobenzyl)pyridin-2-yl)-3-methyl-1H-pyrazole-4-carboxamide] | 79.4 | 96
NC(=O)c1ccn(-c2cc(Cc3cc(F)cc(C(F)F)c3)ccn2)n1 [Example 38, 1-(4-(3-(difluoromethyl)-5-fluorobenzyl)pyridin-2-yl)-1H-pyrazole-3-carboxamide] | 20 | 93
Cc1nn(-c2cc(Cc3cc(F)cc(C(F)(F)F)c3)ccn2)c(CO)c1C(=O)NCCO [Example 40, 1-(4-(3-fluoro-5-(trifluoromethyl)benzyl)pyridin-2-yl)-N-(2-hydroxyethyl)-5-(hydroxymethyl)-3-methyl-1H-pyrazole-4-carboxamide] | – | 101
Cc1nn(-c2ccnc(Cc3cc(F)cc(C(F)(F)F)c3)c2)c(CO)c1C(N)=O [Example 41, 1-(2-(3-fluoro-5-(trifluoromethyl)benzyl)pyridin-4-yl)-5-(hydroxymethyl)-3-methyl-1H-pyrazole-4-carboxamide] | – | 98
Cc1nn(-c2ccnc(Cc3cc(F)cc(C(F)(F)F)c3)c2)c(CO)c1C(=O)NCCO [Example 42, 1-(2-(3-fluoro-5-(trifluoromethyl)benzyl)pyridin-4-yl)-N-(2-hydroxyethyl)-5-(hydroxymethyl)-3-methyl-1H-pyrazole-4-carboxamide] | – | 100
CNC(=O)c1c(C)nn(-c2cc(Cc3cc(F)cc(C(F)(F)F)c3)ccn2)c1CO [Example 43, 1-(4-(3-fluoro-5-(trifluoromethyl)benzyl)pyridin-2-yl)-5-(hydroxymethyl)-N,3-dimethyl-1H-pyrazole-4-carboxamide] | – | 101
Cc1nn(-c2cc(Cc3cc(F)cc(C(F)F)c3)ccn2)c(CO)c1C(N)=O [Example 44, 1-(4-(3-(difluoromethyl)-5-fluorobenzyl)pyridin-2-yl)-5-(hydroxymethyl)-3-methyl-1H-pyrazole-4-carboxamide] | – | 101
CNC(=O)c1cn(-c2cc(Cc3cc(F)cc(C(F)F)c3)ccn2)nc1C [Example 45, 1-(4-(3-(difluoromethyl)-5-fluorobenzyl)pyridin-2-yl)-N,3-dimethyl-1H-pyrazole-4-carboxamide] | 200 | 91
CNC(=O)c1ccn(-c2cc(Cc3cc(F)cc(C(F)F)c3)ccn2)n1 [Example 46, 1-(4-(3-(difluoromethyl)-5-fluorobenzyl)pyridin-2-yl)-N-methyl-1H-pyrazole-3-carboxamide] | 50.1 | 88
NC(=O)c1cn(-c2cccc(Cc3cc(F)cc(C(F)(F)F)c3)n2)nc1CO [Example 47, 1-(6-(3-fluoro-5-(trifluoromethyl)benzyl)pyridin-2-yl)-3-(hydroxymethyl)-1H-pyrazole-4-carboxamide] | 501 | 52
CNC(=O)c1cn(-c2cccc(Cc3cc(F)cc(C(F)(F)F)c3)n2)nc1CO [Example 48, 1-(6-(3-fluoro-5-(trifluoromethyl)benzyl)pyridin-2-yl)-3-(hydroxymethyl)-N-methyl-1H-pyrazole-4-carboxamide] | 1580 | 36

Further lines, results first:

EC50 [nM] | Emax [%] | SMILES
63.1 | 93 | NC(=O)c1nn(-c2cc(Cc3cc(F)cc(C(F)(F)F)c3)ccn2)cc1CO [Example 49, 1-(4-(3-fluoro-5-(trifluoromethyl)benzyl)pyridin-2-yl)-4-(hydroxymethyl)-1H-pyrazole-3-carboxamide]
10 | 82 | CNC(=O)c1nn(-c2cc(Cc3cc(F)cc(C(F)(F)F)c3)ccn2)cc1CO [Example 50, 1-(4-(3-fluoro-5-(trifluoromethyl)benzyl)pyridin-2-yl)-4-(hydroxymethyl)-N-methyl-1H-pyrazole-3-carboxamide]
501 | 83 | NC(=O)c1nn(-c2cccc(Cc3cc(F)cc(C(F)(F)F)c3)n2)cc1CO [Example 51, 1-(6-(3-fluoro-5-(trifluoromethyl)benzyl)pyridin-2-yl)-4-(hydroxymethyl)-1H-pyrazole-3-carboxamide]
100 | 100 | Cc1cnc(Cc2cc(F)cc(C(F)(F)F)c2)cc1-n1cc(C(N)=O)c(C)n1 [Example 52, 1-(2-(3-fluoro-5-(trifluoromethyl)benzyl)-5-methylpyridin-4-yl)-3-methyl-1H-pyrazole-4-carboxamide]
79.4 | 97 | Cc1c(C(N)=O)c(CO)nn1-c1cc(Cc2cc(F)cc(C(F)(F)F)c2)ccn1 [Example 53, 1-(4-(3-fluoro-5-(trifluoromethyl)benzyl)pyridin-2-yl)-3-(hydroxymethyl)-5-methyl-1H-pyrazole-4-carboxamide]
79.4 | 92 | NC(=O)c1cc(CO)n(-c2cc(Cc3cc(F)cc(C(F)(F)F)c3)ccn2)n1 [Example 54, 1-(4-(3-fluoro-5-(trifluoromethyl)benzyl)pyridin-2-yl)-5-(hydroxymethyl)-1H-pyrazole-3-carboxamide]
126 | 83 | CNC(=O)c1ccn(-c2ccnc(Cc3cc(F)cc(C(F)(F)F)c3)c2)n1 [Example 55, 1-(2-(3-fluoro-5-(trifluoromethyl)benzyl)pyridin-4-yl)-N-methyl-1H-pyrazole-3-carboxamide]
100 | 84 | CNC(=O)c1cnn(-c2cc(Cc3cc(F)cc(C(F)(F)F)c3)ccn2)n1 [Example 56, 2-(4-(3-fluoro-5-(trifluoromethyl)benzyl)pyridin-2-yl)-N-methyl-2H-1,2,3-triazole-4-carboxamide]
3.16 | 87 | CNC(=O)c1nn(-c2cc(Cc3cc(F)cc(C(F)(F)F)c3)ccn2)cc1C [Example 57, 1-(4-(3-fluoro-5-(trifluoromethyl)benzyl)pyridin-2-yl)-N,4-dimethyl-1H-pyrazole-3-carboxamide]
15.8 | 92 | CNC(=O)c1nn(-c2cc(Cc3cc(F)cc(C(F)(F)F)c3)ccn2)nc1C [Example 58, 2-(4-(3-fluoro-5-(trifluoromethyl)benzyl)pyridin-2-yl)-N,5-dimethyl-2H-1,2,3-triazole-4-carboxamide]
200 | 79 | Cc1nn(-c2ccnc(C(O)c3cc(F)cc(C(F)(F)F)c3)c2)cc1C(N)=O (centres unmarked) [Example 59, 1-(2-((3-fluoro-5-(trifluoromethyl)phenyl)(hydroxy)methyl)pyridin-4-yl)-3-methyl-1H-pyrazole-4-carboxamide]
